Source: US8592552B2 (priority 2007, dated 2013)
Where no end group is shown, it is not given here.

Assays:
[1] = test system: African swine fever virus (ASFV) BA71V; assay type: cell-based

Row | Substance | I.C.E. at 50 μM (inhibition of the cytopathic effect) [1] | I.C.E. at 100 μM (inhibition of the cytopathic effect) [1] | proliferation of Vero cells (proliferative index) (Vero cells)
1 | SS20: 20-residue negative control peptide of irrelevant sequence (SLVSSDESSSGSSHSSGEHS) [reference compound] | no | no | –
2 | RRRRRRRRSLVSSDESSSGSSHSSGEHS [RS28] | – | – | not modified
